These results are taken from patent publication US8741934B2, “Inhibitors of ion channels” (Pfizer Limited, priority 2007, dated 2014).

SMILES strings stand for the structures.

For the test, the target named is T1, hSCN3A sodium channels (Homo sapiens, UniProt Q9NY46).
T1 construct: expressed in transfected cells
The test is described as follows: hSCN3A electrophysiology, Ionworks Quattro automated platform (Table C). It is filed as cell-based. The settings on record: for inhibition at 3 µM: read-out: SCN3A % INHIB HTS IWQ 3 μM; for inhibition at 10 µM: read-out: SCN3A % INHIB HTS IWQ 10 μM; for SCN3A INHIB INACT DRC EP IWQ EMAX: Emax of dose-response curve, inactivated state. In outline:
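HEK cells stably expressing hSCN3A were recorded in perforated-patch mode with 100 μg/ml amphotericin on Ionworks Quattro. The protocol used an inactivating step, a brief hyperpolarized partial recovery, then a depolarized test step. Inhibition was taken from current amplitude before versus after compound addition.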

T1 sequence (Q9NY46 whole entry): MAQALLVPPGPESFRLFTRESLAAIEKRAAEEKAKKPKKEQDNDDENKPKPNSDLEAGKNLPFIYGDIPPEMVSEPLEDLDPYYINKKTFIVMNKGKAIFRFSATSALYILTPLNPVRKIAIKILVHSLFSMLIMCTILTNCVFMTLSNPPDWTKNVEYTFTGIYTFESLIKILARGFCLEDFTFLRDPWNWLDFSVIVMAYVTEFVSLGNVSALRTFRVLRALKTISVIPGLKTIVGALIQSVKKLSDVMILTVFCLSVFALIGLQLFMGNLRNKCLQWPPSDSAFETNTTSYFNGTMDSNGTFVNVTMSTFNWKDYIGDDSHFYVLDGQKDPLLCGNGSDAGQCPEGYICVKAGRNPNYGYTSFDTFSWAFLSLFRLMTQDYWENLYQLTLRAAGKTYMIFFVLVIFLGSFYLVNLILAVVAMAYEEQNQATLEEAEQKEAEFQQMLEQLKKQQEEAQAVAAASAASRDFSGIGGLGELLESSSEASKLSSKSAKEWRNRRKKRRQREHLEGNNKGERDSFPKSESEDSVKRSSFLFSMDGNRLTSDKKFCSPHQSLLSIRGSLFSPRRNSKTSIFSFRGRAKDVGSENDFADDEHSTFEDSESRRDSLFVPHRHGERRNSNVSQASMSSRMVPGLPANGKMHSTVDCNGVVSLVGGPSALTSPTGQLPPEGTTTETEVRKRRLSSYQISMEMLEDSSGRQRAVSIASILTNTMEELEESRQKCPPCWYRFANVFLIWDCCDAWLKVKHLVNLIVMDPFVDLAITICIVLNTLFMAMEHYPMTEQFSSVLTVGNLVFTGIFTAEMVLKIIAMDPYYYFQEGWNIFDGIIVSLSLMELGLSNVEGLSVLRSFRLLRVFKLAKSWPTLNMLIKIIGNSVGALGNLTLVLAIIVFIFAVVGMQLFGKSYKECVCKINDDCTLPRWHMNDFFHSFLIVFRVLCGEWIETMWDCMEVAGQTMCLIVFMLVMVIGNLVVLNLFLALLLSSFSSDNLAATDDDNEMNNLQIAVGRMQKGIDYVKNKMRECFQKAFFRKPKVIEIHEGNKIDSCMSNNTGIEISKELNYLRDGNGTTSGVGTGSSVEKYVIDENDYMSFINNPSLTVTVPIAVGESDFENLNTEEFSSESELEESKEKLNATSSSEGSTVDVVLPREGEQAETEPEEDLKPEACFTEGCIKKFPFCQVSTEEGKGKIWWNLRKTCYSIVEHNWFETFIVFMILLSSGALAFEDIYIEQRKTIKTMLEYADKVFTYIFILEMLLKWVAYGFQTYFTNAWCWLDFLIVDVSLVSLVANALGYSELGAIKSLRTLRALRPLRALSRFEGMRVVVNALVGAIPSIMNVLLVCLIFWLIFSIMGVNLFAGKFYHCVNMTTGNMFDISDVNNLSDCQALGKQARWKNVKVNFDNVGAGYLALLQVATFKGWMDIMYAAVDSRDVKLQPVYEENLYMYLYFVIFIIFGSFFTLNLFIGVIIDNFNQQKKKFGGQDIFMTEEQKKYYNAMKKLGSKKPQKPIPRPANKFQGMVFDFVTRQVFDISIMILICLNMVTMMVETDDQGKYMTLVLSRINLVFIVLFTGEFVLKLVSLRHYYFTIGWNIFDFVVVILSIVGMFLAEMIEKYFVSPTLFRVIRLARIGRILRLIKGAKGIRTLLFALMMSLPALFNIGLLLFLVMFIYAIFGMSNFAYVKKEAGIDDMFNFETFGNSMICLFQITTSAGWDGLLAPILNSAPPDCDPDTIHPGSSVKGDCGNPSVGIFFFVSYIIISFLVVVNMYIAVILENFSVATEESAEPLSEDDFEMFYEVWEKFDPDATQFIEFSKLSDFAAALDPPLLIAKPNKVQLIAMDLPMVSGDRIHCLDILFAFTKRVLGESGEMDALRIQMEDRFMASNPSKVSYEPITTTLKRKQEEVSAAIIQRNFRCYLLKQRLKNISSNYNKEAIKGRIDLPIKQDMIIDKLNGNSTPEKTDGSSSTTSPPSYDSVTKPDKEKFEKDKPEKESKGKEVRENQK

In the case of `O=C(c1ccc(S(=O)(=O)Nc2nccs2)cc1)N1CCC(CCc2ccccc2)C1` (stereo not shown) [Example 227, 4-{[3-(2-Phenylethyl)pyrrolidin-1-yl]carbonyl}-N-1,3-thiazol-2-yl-benzenesulfonamide], the “SCN3A INHIB INACT DRC EP IWQ EMAX” value is reported as 53. The inhibition at 3 µM (3 μM compound) is 29.3%. Moreover, the inhibition at 10 µM (10 μM compound) turned out to be 45.8%. For the same compound, the IC50 (read-out: SCN3A IWQ IC-50) was determined as 20.3 µM.
Turning to `Cc1cccc(C2CCCN2C(=O)c2ccc(S(=O)(=O)Nc3nccs3)cc2)c1` (stereo not shown) [Example 228, 4-{[2-(3-Methylphenyl)pyrrolidin-1-yl]carbonyl}-N-1,3-thiazol-2-yl-benzenesulfonamide], the inhibition at 3 µM (3 μM compound) came out at 19.3%. Moreover, under “10 μM compound”, the inhibition at 10 µM worked out at 3.53%.
For the compound `CC(c1ccccc1)N(CCO)C(=O)c1ccc(S(=O)(=O)Nc2nccs2)cc1` (stereo not shown) [Example 229, N-(2-hydroxyethyl)-N-(1-phenylethyl)-4-[(1,3-thiazol-2-yl-amino)sulfonyl]benzamide], where the note is “3 μM compound”, the inhibition at 3 µM came to 12.5%. For the same compound, the inhibition at 10 µM (10 μM compound) was 3.91%.
For `O=C(c1ccc(S(=O)(=O)Nc2nccs2)cc1)N(Cc1ccc(F)cc1)C1CC1` [Example 230, N-cyclopropyl-N-(4-fluorobenzyl)-4-[(1,3-thiazol-2-yl-amino)sulfonyl]benzamide], in that order: 16.7% and -0.51%.
For the compound `O=C(c1ccc(S(=O)(=O)Nc2nccs2)cc1)N1CCOC(C2CC2)C1` (stereo not shown) [Example 231, 4-[(2-Cyclopropylmorpholin-4-yl)carbonyl]-N-1,3-thiazol-2-yl-benzenesulfonamide], the inhibition at 3 µM (3 μM compound) stood at 3.22%. Moreover, the inhibition at 10 µM (10 μM compound) is -7.02%.
Regarding `O=C(c1ccc(S(=O)(=O)Nc2nccs2)cc1)N1CCCC1Cc1ccccc1F` (stereo not shown) [Example 233, 4-{[2-(2-Fluorobenzyl)pyrrolidin-1-yl]carbonyl}-N-1,3-thiazol-2-yl-benzenesulfonamide], the inhibition at 3 µM (3 μM compound) was 18.5%. The inhibition at 10 µM (10 μM compound) amounted to 15.9%.
For `O=C(c1ccc(S(=O)(=O)Nc2nccs2)cc1)N1CCOC(COc2cccc(Cl)c2)C1` (stereo not shown) [Example 234, 4-({2-[(3-Chlorophenoxy)methyl]morpholin-4-yl}carbonyl)-N-1,3-thiazol-2-yl-benzenesulfonamide], the “SCN3A INHIB INACT DRC EP IWQ EMAX” value is reported as 43.1. Moreover, the inhibition at 3 µM (3 μM compound) stood at 32%. In addition, the inhibition at 10 µM (10 μM compound) turned out to be 45.9%.
As to `CN(CCC(O)c1ccccc1)C(=O)c1ccc(S(=O)(=O)Nc2nccs2)cc1` (stereo not shown) [Example 235, N-(3-hydroxy-3-phenylpropyl)-N-methyl-4-[(1,3-thiazol-2-yl-amino)sulfonyl]benzamide], the inhibition at 3 µM (3 μM compound) worked out at 21.4%. The inhibition at 10 µM (10 μM compound) was -2.43%.
As to `O=C(c1ccc(S(=O)(=O)Nc2nccs2)cc1)N1CCCC(Cc2ncccn2)C1` (stereo not shown) [Example 237, 4-{[3-(Pyrimidin-2-ylmethyl)piperidin-1-yl]carbonyl}-N-1,3-thiazol-2-yl-benzenesulfonamide], the inhibition at 3 µM (3 μM compound) was found to be 24.7%. Besides, under “10 μM compound”, the inhibition at 10 µM worked out at 17.6%.
For `O=C(c1ccc(S(=O)(=O)Nc2nccs2)cc1)N1CCCCC1c1ccccn1` (stereo not shown) [Example 238, 4-[(2-Pyridin-2-ylpiperidin-1-yl)carbonyl]-N-1,3-thiazol-2-yl-benzenesulfonamide], in that order: 3.68% and 9.77%.
For `COc1cccc(CC2CCCN2C(=O)c2ccc(S(=O)(=O)Nc3nccs3)cc2)c1` (stereo not shown) [Example 240, 4-{[2-(3-Methoxybenzyl)pyrrolidin-1-yl]carbonyl}-N-1,3-thiazol-2-yl-benzenesulfonamide], in that order: 14.4% and 20.2%.
The corresponding values for `C[C@H]([C@@H](O)c1ccccc1)N(C)C(=O)c1ccc(S(=O)(=O)Nc2nccs2)cc1` [Example 241, N-[(1R,2S)-2-hydroxy-1-methyl-2-phenylethyl]-N-methyl-4-[(1,3-thiazol-2-ylamino)sulfonyl]benzamide] are 21.7% and 11.6%.
On to `Cc1cccc(CC2CCCCN2C(=O)c2ccc(S(=O)(=O)Nc3nccs3)cc2)n1` (stereo not shown) [Example 242], for which the “SCN3A % INHIB HTS IWQ 3 μM” value (3 μM compound) was found to be 13.78%. For the same compound, the “SCN3A % INHIB HTS IWQ 10 μM” value (10 μM compound) came out at 8.48%.
Take `Cc1ncccc1OCC1CN(C(=O)c2ccc(S(=O)(=O)Nc3nccs3)cc2)CCO1` (stereo not shown) [Example 243, 4-[(2-{[(2-Methylpyridin-3-yl)oxy]methyl}morpholin-4-yl)carbonyl]-N-1,3-thiazol-2-yl-benzenesulfonamide]: where the note is “3 μM compound”, the inhibition at 3 µM was 15.3%. Further, for the setting “10 μM compound”, the inhibition at 10 µM was 14.7%.
The corresponding values for `O=C(c1ccc(S(=O)(=O)Nc2nccs2)cc1)N1CCCCC1Cc1ccccn1` (stereo not shown) [Example 244, 4-{[2-(Pyridin-2-ylmethyl)piperidin-1-yl]carbonyl}-N-1,3-thiazol-2-yl-benzenesulfonamide] are 14.2% and 21.9%.
Consider `Cc1cc(C)nc(CC2CCCCCN2C(=O)c2ccc(S(=O)(=O)Nc3nccs3)cc2)c1` (stereo not shown) [Example 246, 4-({2-[(4,6-Dimethylpyridin-2-yl)methyl]azepan-1-yl}carbonyl)-N-1,3-thiazol-2-yl-benzenesulfonamide], for which the inhibition at 3 µM (3 μM compound) was -0.31%. Also, the inhibition at 10 µM (10 μM compound) was -1.47%.
Take `Cc1ccnc(CC2CCCN2C(=O)c2ccc(S(=O)(=O)Nc3nccs3)cc2)c1` (stereo not shown) [Example 248, 4-({2-[(4-Methylpyridin-2-yl)methyl]pyrrolidin-1-yl}carbonyl)-N-1,3-thiazol-2-yl-benzenesulfonamide]: where the note is “3 μM compound”, the inhibition at 3 µM turned out to be 20.1%. Where the note is “10 μM compound”, the inhibition at 10 µM came out at 14.7%.
The corresponding values for `CN(CC(O)c1ccccc1)C(=O)c1ccc(S(=O)(=O)Nc2nccs2)cc1` (stereo not shown) [Example 250, N-(2-hydroxy-2-phenylethyl)-N-methyl-4-[(1,3-thiazol-2-yl-amino)sulfonyl]benzamide] are -4.32% and 0.12%.
The corresponding values for `CN(C(=O)c1ccc(S(=O)(=O)Nc2nccs2)cc1)C(Cc1ccccc1)c1ccccc1` (stereo not shown) [Example 251, N-(1,2-diphenylethyl)-N-methyl-4-[(1,3-thiazol-2-ylamino)sulfonyl]benzamide] are 19.9% and 0.8%.
For `O=C(c1ccccc1)C1CCCN(C(=O)c2ccc(S(=O)(=O)Nc3nccs3)cc2)C1` (stereo not shown) [Example 253, 4-[(3-Benzoylpiperidin-1-yl)carbonyl]-N-1,3-thiazol-2-yl-benzenesulfonamide], in that order: 5.99% and 31.3%.
`O=C(c1ccc(S(=O)(=O)Nc2nccs2)cc1)N1CCCCCC1c1ccccn1` (stereo not shown) [Example 255, 4-[(2-Pyridin-2-ylazepan-1-yl)carbonyl]-N-1,3-thiazol-2-yl-benzenesulfonamide]: the inhibition at 3 µM (3 μM compound) is 4.16%. Further, for the setting “10 μM compound”, the inhibition at 10 µM was 6.56%.
On to `C[C@@H](c1ccccc1)N(C)C(=O)c1ccc(S(=O)(=O)Nc2nccs2)cc1` [Example 256, N-methyl-N-[(1S)-1-phenylethyl]-4-[(1,3-thiazol-2-yl-amino)sulfonyl]benzamide], for which the inhibition at 3 µM (3 μM compound) was 1.49%. Also, under “10 μM compound”, the inhibition at 10 µM was found to be 6.44%.
For `O=C(c1ccc(S(=O)(=O)Nc2nccs2)cc1)N1CCOCC(O)(Cc2ccccc2)C1` (stereo not shown) [Example 258, 4-[(6-Benzyl-6-hydroxy-1,4-oxazepan-4-yl)carbonyl]-N-1,3-thiazol-2-yl-benzenesulfonamide], in that order: 0.17% and 12%.
For `O=C(c1ccc(S(=O)(=O)Nc2nccs2)cc1)N1CCOCC(Cc2ccccc2)C1` (stereo not shown) [Example 259, 4-[(6-Benzyl-1,4-oxazepan-4-yl)carbonyl]-N-1,3-thiazol-2-yl-benzenesulfonamide], the inhibition at 3 µM (3 μM compound) was found to be 5.51%. Besides, the inhibition at 10 µM (10 μM compound) came out at 19.6%.
The corresponding values for `COCCCOC1CCCN(C(=O)c2ccc(S(=O)(=O)Nc3nccs3)cc2)C1` (stereo not shown) [Example 260, 4-{[3-(3-Methoxypropoxy)piperidin-1-yl]carbonyl}-N-1,3-thiazol-2-yl-benzenesulfonamide] are -3.05% and 10.5%.
For `O=C(c1ccc(S(=O)(=O)Nc2nccs2)cc1)N1CCCC[C@@H]1c1ccccn1` [Example 261, 4-{[(2R)-2-pyridin-2-yl-piperidin-1-yl]carbonyl}-N-1,3-thiazol-2-yl-benzenesulfonamide], in that order: 6.02% and 10.4%.
For `O=C(c1ccc(S(=O)(=O)Nc2nccs2)cc1)N1CCCC(COc2ccc(F)cc2)C1` (stereo not shown) [Example 264, 4-({3-[(4-Fluorophenoxy)methyl]piperidin-1-yl}carbonyl)-N-1,3-thiazol-2-yl-benzenesulfonamide], in that order: 16.9% and 14.8%.
On to `N#Cc1cccc(OC2CCCN(C(=O)c3ccc(S(=O)(=O)Nc4nccs4)cc3)C2)c1` (stereo not shown) [Example 265, 4-{[3-(3-Cyanophenoxy)piperidin-1-yl]carbonyl}-N-1,3-thiazol-2-yl-benzenesulfonamide], for which the “SCN3A INHIB INACT DRC EP IWQ EMAX” value is listed as 32.2. Besides, the inhibition at 3 µM (3 μM compound) turned out to be 22.6%. Besides, the inhibition at 10 µM (10 μM compound) was found to be 44.3%.
For the compound `O=C(c1ccc(S(=O)(=O)Nc2nccs2)cc1)N1CCCC(COc2ccccc2)C1` (stereo not shown) [Example 267, 4-{[3-(Phenoxymethyl)piperidin-1-yl]carbonyl}-N-1,3-thiazol-2-yl-benzenesulfonamide], the inhibition at 3 µM (3 μM compound) worked out at 30.1%. In addition, where the note is “10 μM compound”, the inhibition at 10 µM is 23.1%.
On to `O=C(c1ccc(S(=O)(=O)Nc2nccs2)cc1)N1CCCCCC1c1ccccc1` (stereo not shown) [Example 268, 4-[(2-Phenylazepan-1-yl)carbonyl]-N-1,3-thiazol-2-yl-benzenesulfonamide], for which the inhibition at 3 µM (3 μM compound) was 11%. Moreover, under “10 μM compound”, the inhibition at 10 µM came out at 10.6%.
